Columns and labels:
[1] = system: EA (enzyme acceptor fragment of β-galactosidase); assay: Enzyme Fragment Complementation (EFC) assay; type: biochemical; conditions: 50 nM ED, EA plus chemiluminescence substrate, 60 min room temperature; compared to linear ED (cysteines capped with maleimide)
Method: For determination of EFC activity, 10 μL of 50 nM cyclic ED-Lactamase substrate (cED47mer) or 10 μl linear ED (Cysteines capped with maleimide, DiscoveRx, Fremont, Calif.) 50 nM was added to 20 μl EDDB Enzyme donor dilution buffer (MES 10 mM, NaCl 200 mM, EGTA 10 mM, BSA 2 mg/ml, NaN3 14.6 mM) (DiscoveRx, Fremont, Calif.) in a 384-well white plate.

TEM-1 lactamase = TEM-1 lactamase (Escherichia coli, UniProt P62593); conditions: cED47mer 50 nM, CHOK1 cell lysates, 3-hour incubation with varying TEM1 lactamase (picomole), read 1 hr after EA and substrate
Method: The assay comprises two basic steps: • 1) hydrolysis of the lactam in the cyclic ED lactamase substrate (cED 47mer) by the lactamase to yield a linear ED; and • 2) detection of the linear ED by EA and β-galactosidase chemiluminescent substrate. The lactamase reaction step comprises 101 of cell lysate (<4000 CHOK1 cells, DiscoveRx, Fremont, Calif.) or cell lysis buffer (part # 30-175, DiscoveRx, Fremont, Calif.), 10 μl cED47mer substrate at 50 nM and 10 μl of lactamase (TEM-1, Invitrogen Part # PV3575) at varying concentrations. The reaction mixture is then incubated at ambient temperature for various time intervals. The detection step comprises addition of 10 μL1 EA (1-2 μM, DiscoveRx, Fremont, Calif.) and 10 μl chemiluminescent substrate reagent (Applied Biosystems, Foster City, Calif.).
The chemiluminescence was read 1 hr after addition of EA and chemiluminescent substrate on a Packard Lumincount Reader (Packard Instruments, Meridien, Conn.) with the PMT set at 1100V and read time 1 second per well.

Substance: cED47mer: 47-mer β-galactosidase enzyme donor peptide (SEQ ID NO:1) cyclized through its two cysteines with bis-maleimide cephem compound 3 (CSLAVVLQQRRDWENPGVTQLNRLAAHPPFASWRNSEEARTDCPSQQL; cyclized via cysteines with bis-maleimide cephem compound 3; …ON)
- EFC activity (FIG. 4) [1]: reduction of EFC activity
- chemiluminescence signal after cleavage with lactamase (FIG. 5) (TEM-1 lactamase): increased with concentration of E. coli TEM1 lactamase (picomole) in a dose dependent fashion
